Measurements as given in patent US6518262B1, “22R-hydroxycholesta-8, 14-diene derivatives for the inhibition of meiosis” (Akzo Nobel N.V., priority 1999, dated 2003).

How the values were obtained:
[1] = tested on: cumulus enclosed oocytes (CEO); assay: Oocyte assay, antagonistic testing, inhibition of 22S-hydroxy-FF-Mas induced maturation in cumulus enclosed oocytes (CEO assay); format: cell-based, mice (B6D2-F1, strain C57BL×DBA); conditions: 22S-hydroxy-FF-Mas 5 μM, control (22S-hydroxy-FF-Mas alone) in brackets
Description: The meiosis inhibiting activity of the 22R-hydroxycholesta-8,14-diene derivatives of the invention is measured in an in vitro oocyte assay as the ability to inhibit the FF-Mas or 22S-hydroxy-FF-Mas induced maturation, in hypoxanthine media, in denuded oocytes (DO) or cumulus enclosed oocytes (CEO), respectively. Natural resumption of meiosis can be mimicked in vitro by addition of FF-Mas or other agonists to the culture medium containing hypoxanthine. The antagonistic activity of the compounds is measured as the ability to inhibit the FF-Mas or 22S-hydroxy-FF-Mas induced oocyte maturation in denuded oocytes or cumulus enclosed oocytes, respectively, in vitro. Ovaries are obtained from immature female mice (B6D2-F1, strain C57BL×DBA). At the age of 19, 20 or 21 days the mice are injected subcutaneously with a single dose of 20 IU follicle stimulating hormone (Humegon, Organon, The Netherlands) in saline. Forty-eight hours after follicle stimulating hormone injection mice are killed by cervical dislocation. The ovaries are removed, freed of extraneous tissue and placed in a multidish containing 0.5 ml preparation medium at 37° C. L-15 Leibovitz medium (Gibco, pH 7.3±0.1) supplemented with bovine serum albumin (3 mg·ml^−1), L-glutamine (0.23 mM), sodium pyruvate (2 mM) and hypoxanthine (4 mM) is used as preparation medium. The antral follicles of the ovaries are punctured under a dissecting microscope using two 27-gauge needles attached to two 1 ml syringes. […] At t=0 the number of oocytes with intact germinal vesicles (GV) or germinal vesicle break-down (GVBD) is counted under an inverted microscope with differential interference contrast equipment. […] At the end of the culture period the number of oocytes with GV or GVBD per group is counted. For statistical analysis the percentage germinal vesicle breakdown is calculated for each group in one block. These percentages are subjected to arcsin transformation, and differences between control and test compounds are analyzed by an ANOVA test for a randomized block design. […]

[2] = tested on: cumulus enclosed oocytes (CEO); assay: Oocyte assay, agonistic testing, cumulus enclosed oocytes (CEO assay); format: cell-based, mice (B6D2-F1, strain C57BL×DBA); conditions: compound 5 μM, hypoxanthine medium, 22 hours culture, control value in brackets
From the text: Oocytes arrested in meiosis contain diffused chromosomes which are surrounded by an intact nuclear envelope known as the germinal vesicle (GV). Upon reinitiation of meiosis by the midcycle gonadotropin surge, the chromosomes recondense and the GV breaks down (GVBD). In vivo, the oocyte is exposed to hypoxanthine (HX), which maintains the oocyte arrested in the meiotic prophase. This meiotic arrest can be mimicked in vitro by addition of hypoxanthine to the culture medium. The agonistic activity of meiosis activating substances is measured as the ability to overcome the hypoxanthine maintained meiotic arrest in denuded oocytes (DO) or cumulus enclosed oocytes (CEO), i.e. as the ability to induce meiotic resumption in vitro.
Ovaries are obtained from immature female mice (B6D2-F1, strain C57BL×DBA). At the age of 19, 20 or 21 days the mice are injected subcutaneously with a single dose of 20 IU follicle stimulating hormone (Humegon, Organon, The Netherlands) in saline.
Forty-eight hours after follicle stimulating hormone injection mice are killed by cervical dislocation. The ovaries are removed, freed of extraneous tissue and placed in a multidish containing 0.5 ml preparation medium at 37° C. L-15 Leibovitz medium (Gibco, pH 7.3±0.1) supplemented with bovine serum albumin (3 mg·ml^−1), L-glutamine (0.23 mM), sodium pyruvate (2 mM) and hypoxanthine (4 mM) is used as preparation medium. […]
The oocyte assay is performed in 3 blocks, each block represents the ovaries of one mouse (randomized block design). […] At t=0 the number of oocytes with intact germinal vesicles (GV) or germinal vesicle break-down (GVBD) is counted under an inverted microscope with differential interference contrast equipment. […] At the end of the culture period the number of oocytes with GV or GVBD per group is counted. For statistical analysis the percentage germinal vesicle breakdown is calculated for each group in one block. These percentages are subjected to arcsin transformation, and differences between control and test compounds are analyzed by an ANOVA test for a randomized block design. […]

**Q.** Which “% GVBD CEO assay exp.” value ([1]; compound tested 5 M) does the source give for `CC(C)CC[C@@H](O)[C@@H](C)[C@H]1CC=C2C3=C(CC[C@@]21C)[C@@]1(C)CC[C@H](O)C(C)(C)[C@@H]1CC3` [Example 1, (3β,5α,20S,22R)-4,4-Dimethylcholesta-8,14-diene-3,22-diol] here?
**A.** 10(93)^3%

**Q.** What does the source list for `CC(C)=CC[C@@H](O)[C@@H](C)[C@H]1CC=C2C3=C(CC[C@@]21C)[C@@]1(C)CC[C@H](O)C(C)(C)[C@@H]1CC3` [Example 2, (3β,5α,20S,22R)-4,4-Dimethylcholesta-8,14,24-triene-3,22-diol]?
**A.** % GVBD CEO assay exp. [1]: 0(84)^4%; % GVBD CEO assay exp. [2]: 2(2) %
